Assay results as given in patent US10273233B2, “Inhibitors of influenza viruses replication” (Vertex Pharmaceuticals Incorporated, priority 2015, dated 2019).

Legend:
[1] = test system: influenza type A (H1N1, H3N2, and H3N8) viral strains; format: cell-based
A/WS/33 = assay: 3-day CP assay in MDCK cells; format: cell-based; details: Influenza A virus
A/Puerto Rico/8/34 = assay: 3-day CP assay in MDCK cells; format: cell-based; details: Influenza A virus
A/Weiss/43 = assay: 3-day CP assay in MDCK cells; format: cell-based; details: Influenza A virus
A/FM/1/47 = assay: 3-day CP assay in MDCK cells; format: cell-based; details: Influenza A virus
A/Mal/302/54 = assay: 3-day CP assay in MDCK cells; format: cell-based; details: Influenza A virus
A/Denver/1/57 = assay: 3-day CP assay in MDCK cells; format: cell-based; details: Influenza A virus
A/Hong Kong/8/68 = assay: 3-day CP assay in MDCK cells; format: cell-based; details: Influenza A virus
A/Victoria/3/75 = assay: 3-day CP assay in MDCK cells; format: cell-based; details: Influenza A virus
A/New Jersey/8/76 = assay: microbe, parasite or virus in culture; format: cell-based; details: Influenza A virus, MDCK
A/Wisconsin/67/2005 = assay: 3-day CP assay in MDCK cells; format: cell-based; details: Influenza A virus
A/Chelyabinsk/1/200 = assay: 3-day CP assay in MDCK cells; format: cell-based; details: Influenza A virus
A/Fukushima/141/2006 = assay: 3-day CP assay in MDCK cells; format: cell-based; details: Influenza A virus
A/Georgia/17/2006 = assay: 3-day CP assay in MDCK cells; format: cell-based; details: Influenza A virus
A/Georgia/20/2006 = assay: 3-day CP assay in MDCK cells; format: cell-based, influenza A
A/Hawaii/2/2006 = assay: 3-day CP assay in MDCK cells; format: cell-based; details: Influenza A virus
A/Missouri/3/2006 = assay: 3-day CP assay in MDCK cells; format: cell-based; details: Influenza A virus
A/Nebraska/1/2006 = assay: 3-day CP assay in MDCK cells; format: cell-based; details: Influenza A virus
A/Santiago/7981/2006 = assay: 3-day CP assay in MDCK cells; format: cell-based; details: Influenza A virus
A/St. Petersburg8/2006 = assay: 3-day CP assay in MDCK cells; format: cell-based; details: Influenza A virus
A/Virginia/01/2006 = assay: 3-day CP assay in MDCK cells; format: cell-based; details: Influenza A virus
A/Cambodia0371/2007 = assay: 3-day CP assay in MDCK cells; format: cell-based; details: Influenza A virus
A/South Dakota/6/2007 = assay: 3-day CP assay in MDCK cells; format: cell-based; details: Influenza A virus
A/Texas/12/2007 = assay: 3-day CP assay in MDCK cells; format: cell-based; details: Influenza A virus
A/Uruguay/716/2007 = assay: 3-day CP assay in MDCK cells; format: cell-based; details: Influenza A virus
[2] = test system: A/California/07/2009 NYMC, X-179A; assay: 3-day CP assay in MDCK cells; format: cell-based; details: Influenza A virus
A/Mexico/4108/2009 = assay: 3-day CP assay in MDCK cells; format: cell-based; details: Influenza A virus
A/Texas/48/2009 = assay: 3-day CP assay in MDCK cells; format: cell-based; details: Influenza A virus
A/Virginia/ATCC2/2009 = assay: 3-day CP assay in MDCK cells; format: cell-based; details: Influenza A virus
A/Virginia/ATCC3/2009 = assay: 3-day CP assay in MDCK cells; format: cell-based; details: Influenza A virus
A/Swine/Iowa/15/30 = assay: microbe, parasite or virus in culture; format: cell-based, influenza A; details: read-out: EC50
A/Swine/1976/31 = assay: microbe, parasite or virus in culture; format: cell-based; details: Influenza A virus, MDCK, in Sus scrofa
A/Equine/Miami/63 = assay: microbe, parasite or virus in culture; format: cell-based; details: Influenza A virus, MDCK
B/Mass/3/66 = assay: 3-day CP assay in MDCK cells; format: cell-based; details: Influenza B virus
B/Russia/69 = assay: 3-day CP assay in MDCK cells; format: cell-based; details: Influenza B virus
B/Memphis/20/1996--070 = assay: 3-day CP assay in MDCK cells; format: cell-based; details: Influenza B virus
B/Memphis/20/1996--071 = assay: 3-day CP assay in MDCK cells; format: cell-based; details: Influenza B virus
influenza A = assay: Influenza A mouse model, Compound (1) with or without oseltamivir; format: in vivo, Mice; details: for Percent Survival: 10 days
Protocol: Referring to FIG. 32, the potential for a positive therapeutic interaction between Compound (1) and oseltamivir against influenza A was explored in the mouse model. Mice were challenged with influenza A and dosed with vehicle (10 mL/kg 0.5% MC) or Compound (1) at 1, 3, 10, or 30 mg/kg BID alone, or in combination with 10 mg/kg BID oseltamivir. Therapy was started 48 hours post influenza A infection and continued for 10 days. All of the vehicle-treated controls succumbed to disease by study day 8 (Table 21).

influenza B = assay: Influenza B mouse model, Compound (1) with oseltamivir; format: in vivo, Mice
Protocol: The consequence of combining Compound (1) and oseltamivir was explored in the influenza B mouse model. Mice were dosed prophylactically with vehicle (10 mL/kg 0.5% MC), 10 mg/kg oseltamivir, or oseltamivir in combination with Compound (1) at 10 mg/kg, 30 mg/kg or 60 mg/kg BID and treatment continued for 10 days.

SMILES: CC(C)(C)[C@@H](CC(=O)O)Nc1nc(-c2c[nH]c3ncc(F)cc23)ncc1F [Compound (1)]
- EC50 [1]: 4.3 nM
- EC50 (A/WS/33): 2.4 nM
- EC50 (A/Puerto Rico/8/34): 14 nM
- EC50 (A/Weiss/43): 1.3 nM
- EC50 (A/FM/1/47): 1.5 nM
- EC50 (A/Mal/302/54): 3.9 nM
- EC50 (A/Denver/1/57): 1.4 nM
- EC50 (A/Hong Kong/8/68): 1.9 nM
- EC50 (A/Victoria/3/75): 2.1 nM
- EC50 (A/New Jersey/8/76): 0.96 nM
- EC50 (A/Wisconsin/67/2005): 3.7 nM
- EC50 (A/Chelyabinsk/1/200): 3.1 nM
- EC50 (A/Fukushima/141/2006): 1.5 nM
- EC50 (A/Georgia/17/2006): 9.1 nM
- EC50 (A/Georgia/20/2006): 1.7 nM
- EC50 (A/Hawaii/2/2006): 1.2 nM
- EC50 (A/Missouri/3/2006): 2.6 nM
- EC50 (A/Nebraska/1/2006): 1.9 nM
- EC50 (A/Santiago/7981/2006): 1.8 nM
- EC50 (A/St. Petersburg8/2006): 1.3 nM
- EC50 (A/Virginia/01/2006): 12 nM
- EC50 (A/Cambodia0371/2007): 1.2 nM
- EC50 (A/South Dakota/6/2007): 0.52 nM
- EC50 (A/Texas/12/2007): 30 nM
- EC50 (A/Uruguay/716/2007): 1 nM
- EC50 [2]: 10 nM
- EC50 (A/Mexico/4108/2009): 3.7 nM
- EC50 (A/Texas/48/2009): 1.2 nM
- EC50 (A/Virginia/ATCC2/2009): 1.4 nM
- EC50 (A/Virginia/ATCC3/2009): 1.2 nM
- EC50 (A/Swine/Iowa/15/30): 4.3 nM
- EC50 (A/Swine/1976/31): 5.2 nM
- EC50 (A/Equine/Miami/63): 3.7 nM
- EC50 (B/Mass/3/66): > 10000 nM
- EC50 (B/Russia/69): > 10000 nM
- EC50 (B/Memphis/20/1996--070): > 10000 nM
- EC50 (B/Memphis/20/1996--071): > 10000 nM
- protection from mortality (influenza A; 1 or 3 mg/kg BID Compound (1) with 10 mg/kg oseltamivir dosed BID): increased protection from mortality compared to the single agents
- Percent Survival (influenza A; Compound (1) 1 mg/kg BID alone, started +48 hours after infection): 0%
- Percent Survival (influenza A; Compound (1) 1 mg/kg BID in combination with oseltamivir 10 mg/kg BID, +48 hours): 87.5%
- Percent Survival (influenza A; Compound (1) 3 mg/kg BID alone, started +48 hours after infection): 75%
- Percent Survival (influenza A; Compound (1) 3 mg/kg BID in combination with oseltamivir 10 mg/kg BID, +48 hours): 100%
- Percent Survival (influenza A; Compound (1) 10 mg/kg BID alone, started +48 hours after infection): 100%
- Percent Survival (influenza A; Compound (1) 10 mg/kg BID in combination with oseltamivir 10 mg/kg BID, +48 hours): 100%
- Percent Survival (influenza A; Compound (1) 30 mg/kg BID alone, started +48 hours after infection): 100%
- Percent Survival (influenza A; Compound (1) 30 mg/kg BID in combination with oseltamivir 10 mg/kg BID, +48 hours): 100%
- protection from mortality (influenza A; Compound (1) at 3 mg/kg BID alone): partial survival benefit
- protection from mortality (influenza A; Compound (1) at 10 or 30 mg/kg BID alone): complete protection from mortality
- protection from mortality (influenza A; administered alone: Compound (1) 1 mg/kg BID, oseltamivir 10 mg/kg): failed to protect mice from influenza infection
- interaction of Compound (1) and oseltamivir combination (influenza A; combination with oseltamivir): synergistic effect
- survival benefit and protection from BW and lung function loss (influenza B; 10, 30 or 60 mg/kg BID Compound (1) in combination with oseltamivir 10 mg/kg BID, prophylactic, 10 days): the same survival benefit and protection from BW and lung function loss as oseltamivir treatment alone
- interaction when added to oseltamivir therapy (influenza B; Compound (1) added to oseltamivir therapy): no negative interaction
- activity against influenza B (influenza B; mouse, in vivo): lack of Compound (1) activity against influenza B
